From patent publication US20100331297A1, “MODULATION OF PROTEIN TRAFFICKING” (FOLDRX PHARMACEUTICALS, INC., priority 2007, published 2010)

Key:
Assay type in all cases: cell-based
ΔF508 CFTR [1] = biological target: T1, ΔF508 CFTR (Homo sapiens, UniProt P13569, DEL508-508); assay: Ussing chamber assay, short-circuit current in FRT cells stably expressing ΔF508 CFTR; design: expressed in transfected cells; host or cells: Fischer rat thyroid (FRT) cells; details: FRT ΔF508 CFTR monolayers treated 24 hours; forskolin, isobutylmethylxanthine, genistein
Experimental: Ussing Chamber Assay: Fischer rat thyroid (FRT) cells stably expressing ΔF508 CFTR (cystic fibrosis transmembrane conductance regulator) were cultured as previously described in Am J. Physiol. (1994) 266 L405-413. Monolayers of cells were grown on Snapwell inserts (Corning Inc.) at the air/liquid interface. The monolayers were treated with compound for 24 hours. The inserts are mounted in Ussing chambers (Harvard Apparatus) and short-circuit currents are measured using a voltage clamp apparatus (WPI, Inc.). A mucosal to serosal gradient in chloride concentration is imposed and the basolateral membrane is permeabilized using amphotericin. Short circuit currents are measured upon addition of the agonists forskolin, isobutylmethylxanthine, and genistein to maximally activate CFTR.

ypt1^ts cells = assay: Rescue of growth of ypt1^ts mutant yeast (OD600); details: Saccharomyces cerevisiae, read-out: Ypt1-ts MRC (Minimum Rescue Concentration), ypt1^ts cells, 35° C. and 37° C., OD600; multiple results separated by a comma
Procedure, shortened: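 Log-phase ypt1^ts cells (N121I/A161V) in SC 2% glucose were diluted to OD600 0.003 and treated with compound at 50 μM-0.05 μM final in 1% DMSO. Cultures were incubated at 35° C. (read at 24 and 40 h) or 37° C. (read at 40 h), with rescue measured as OD600 growth and reported as minimum rescue concentration.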

ΔF508 CFTR [2] = biological target: T1, ΔF508 CFTR; assay: Corrector activity, YFP halide (iodide) quenching assay in FRT cells expressing ΔF508 CFTR; design: expressed in transfected cells; host or cells: Fischer rat thyroid (FRT) cells; details: Corrector EC50, FRT cells ΔF508 CFTR/YFP, 24 hours with compound at 37° C., forskolin and genistein
Procedure, shortened: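 FRT cells co-expressing ΔF508 CFTR and halide-sensitive YFP were incubated 24 h at 37° C with compounds, then stimulated 30 min at 37° C in PBS with forskolin and genistein. Endpoint fluorescence after iodide injection was normalized to initial reading; EC50 from 4-parameter fit with bottom constrained to DMSO control.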

T1 sequence (P13569 with tags, fused parts or gaps DEL508-508): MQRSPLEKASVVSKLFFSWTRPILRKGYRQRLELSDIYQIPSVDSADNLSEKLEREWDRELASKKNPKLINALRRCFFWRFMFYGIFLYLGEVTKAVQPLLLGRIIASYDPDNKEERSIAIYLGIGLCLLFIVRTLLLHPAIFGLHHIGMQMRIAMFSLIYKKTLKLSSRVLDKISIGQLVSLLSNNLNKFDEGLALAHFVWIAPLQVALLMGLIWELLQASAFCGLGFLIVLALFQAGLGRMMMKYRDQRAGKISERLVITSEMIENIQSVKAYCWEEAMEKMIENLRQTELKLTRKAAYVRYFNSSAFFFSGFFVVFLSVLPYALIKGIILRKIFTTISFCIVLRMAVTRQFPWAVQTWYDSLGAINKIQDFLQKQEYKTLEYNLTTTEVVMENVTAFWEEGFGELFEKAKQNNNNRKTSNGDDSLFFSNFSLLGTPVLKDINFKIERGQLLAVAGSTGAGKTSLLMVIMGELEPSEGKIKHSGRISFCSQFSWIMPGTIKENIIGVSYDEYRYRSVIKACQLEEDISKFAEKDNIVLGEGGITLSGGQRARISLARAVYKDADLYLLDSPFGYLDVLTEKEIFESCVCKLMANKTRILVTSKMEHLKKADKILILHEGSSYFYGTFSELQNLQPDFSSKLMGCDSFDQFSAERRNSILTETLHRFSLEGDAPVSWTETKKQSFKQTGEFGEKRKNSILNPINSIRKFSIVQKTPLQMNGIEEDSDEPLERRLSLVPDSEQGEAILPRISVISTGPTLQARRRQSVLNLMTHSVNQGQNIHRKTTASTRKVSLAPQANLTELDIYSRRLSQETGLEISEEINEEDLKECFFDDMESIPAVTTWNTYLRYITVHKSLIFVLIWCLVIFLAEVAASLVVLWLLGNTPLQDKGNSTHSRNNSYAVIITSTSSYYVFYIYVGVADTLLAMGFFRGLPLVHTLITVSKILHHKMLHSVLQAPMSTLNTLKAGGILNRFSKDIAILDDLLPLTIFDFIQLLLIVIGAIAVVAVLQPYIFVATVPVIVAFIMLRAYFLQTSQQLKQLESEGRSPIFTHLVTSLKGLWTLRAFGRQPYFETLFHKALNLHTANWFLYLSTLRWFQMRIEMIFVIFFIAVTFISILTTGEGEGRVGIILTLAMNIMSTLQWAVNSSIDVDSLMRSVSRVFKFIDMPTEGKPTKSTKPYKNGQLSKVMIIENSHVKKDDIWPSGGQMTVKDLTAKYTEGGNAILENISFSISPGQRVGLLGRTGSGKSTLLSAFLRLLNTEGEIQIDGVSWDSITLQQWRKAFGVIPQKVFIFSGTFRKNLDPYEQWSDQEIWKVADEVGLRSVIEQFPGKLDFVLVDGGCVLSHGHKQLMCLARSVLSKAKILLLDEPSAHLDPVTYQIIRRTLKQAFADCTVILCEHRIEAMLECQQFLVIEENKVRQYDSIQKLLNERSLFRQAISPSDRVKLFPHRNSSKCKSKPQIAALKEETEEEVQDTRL

CC(C)(C)n1nc(-c2ccc(Cl)cc2)c2c(N)ncnc21 [compound 25]
short circuit current after the addition of all three agonists (ΔF508 CFTR [1]): ~65 uA/cm^2
minimal effective concentration (ypt1^ts cells): < 10 µM
EC50 (ΔF508 CFTR [2]): 2 to 5 µM
